In patent US6683052B1, “Lipopeptides containing an interferon-γ fragment, and uses thereof in pharmaceutical compositions” (Institut National de la Sante et de la Recherche Medicale …, priority 1998, dated 2004):
Where a SMILES comes first, the peptide text is derived from it. The star is where a group is joined. Palmitoyl = CCCCCCCCCCCCCCCC(=O)*

Columns and labels:
[1] = tested on: murine splenocytes; test: Induction of class II CMH molecules (IA^b) on murine splenocytes by lipopeptide fragments (FIG. 12A); assay type: cell-based, 129 Sv mice; settings: for increase in class II CMH molecules (FIG. 12A): murine splenocytes, 24 hours, different concentrations
Procedure: (§1) Fresh splenocytes are obtained from 7-week-old female 129 Sv mice. The COLO 205 human colon carcinoma lines are obtained from the ATCC (American Type Culture Collection). The splenocytes and COLO 205 cells are maintained in RPMI 1640 (Gibco BRL, Courbevoie, France), supplemented with 10% FCS (Gibco BRL), sodium pyruvate (Sigma, St. Louis, USA) and incubated at 37° C. in 5% CO2.
(§2) The cells were stimulated for 24 hours with different concentrations of MuL, L-mIFNγ 113-132, L-mIFNγ 122-132 or MuSL. The murine splenocytes and COLO 205 cells were labelled for the expression of II MHC with 1 μg of anti-mouse IA^b FITC monoclonal antibody (mAb) (Pharmingen, San Diego, USA) and 10 μl of anti-HLA-DR clone TAL.1B5 mouse FITC mAb (Cymbus Biotechnology Ltd, Hants, UK), respectively. A negative control mouse FITC IgG1 (DAKO S. A., Trappes, France) was used as control isotype. The cells were incubated for 1 hour at 4° C. in PBS, 10% FCS and then washed, and the expression of II MHC was analysed by flow cytometry using a Coulter EPILS II cytometer (Coulter, Hialeah, Fla., USA) at a rate of 10,000 events per sample.
(§3) FIG. 12: Induction of class II CMH molecules by human or murine cells stimulated with lipopeptides derived from IFN-γ. The murine splenocytes (A) and the COLO 205 human cell line (B) were incubated for 24 hours with different concentrations of lipopeptides derived from IFN-γ. The cells were labelled with a monoclonal antibody directed against the class II CMH molecules, and analysed by flow cytometry. The ratio between the average fluorescence intensity of the cells treated with the lipopeptides and between the average fluorescence intensity of the untreated cells is indicated on the y-axis. The lipopeptide concentration is indicated in μM on the x-axis; MuL: solid circles; MuSL : hollow circles; L-mIFN 113-132: triangles; L-mIFN 122-132: X.

[2] = tested on: COLO 205 human cell line; test: Induction of HLA-DR on COLO 205 cells by lipopeptide fragments (FIG. 12B); assay type: cell-based; settings: for increase in class II CMH molecules (FIG. 12B): COLO 205, 24 hours, different concentrations
Procedure: as §1, §2, §3

[3] = tested on: murine splenocytes and COLO 205 cells; test: Cytotoxicity at high lipopeptide concentrations; assay type: cell-based
[4] = tested on: splenocytes; test: Expression of class II CMH molecules and Fc-γ receptors on splenocytes taken from an animal; assay type: cell-based, Balb/c mouse; settings: 50 μM, 24 hours, flow cytometry
Procedure: (§4) Principle: to evaluate the activity of the vectorized agonist on cells taken from an animal and treated in vitro (in order to assess the value of a subsequent in vivo study).
(§5) Procedure. The splenocytes and peritoneal cells taken from an animal (Balb/c mouse) are re-cultured at a rate of 2.5×10^6 splenocytes and […] peritoneal cells per well in 24-well plates (NUNC) stimulated with 50 μM of the different peptides in a final volume of 1 ml. After stimulation for 24 hours, the cells are labelled with the anti IA^d monoclonal antibody described in the preceding paragraph, according to the same protocol. To detect the Fc-γ R, the cells are labelled with 1 μg of a rat anti Fc-γ R monoclonal antibody (Pharmingen, San Diego, USA). Next, the cells are incubated for ½ hour with a rat anti IgG biotinylated polyclonal antibody. The revelation is then carried out with FITC streptavidin used at a dilution of 1:100 (Sigma, St. Louis, USA). The expression of Fc-γ R is determined by flow cytometry.

[5] = tested on: WEHI3; test: Induction of class II CMH molecules on WEHI3 cell line, flow cytometry; assay type: cell-based, murine; settings: 50 μM, stimulated for 24 hours
Procedure: (§6) Principle: to check the induction of class II CMH molecules on cell lines (P388D1 and WEHI3: murine myelomonocytes) with the above-mentioned peptides.
(§7) Procedure. The cells are cultured the day before at a rate of 3×10^5 cells per well in 24-well culture plates (NUNC). The following day, the cells are stimulated with the various lipopeptide and peptide constructs at a final concentration of 50 μM in 1 ml of medium. After incubation for 24 hours at 37° C. in an atmosphere saturated with 5% CO2, the cells are recovered and incubated for 1 hour at 4° C. with 3 μg of a biotinylated mouse anti-I-Ad monoclonal antibody (Pharmingen, San Diego, USA). After revelation for 30 minutes with FITC streptavidin used at a dilution of 1:100 (Sigma, St. Louis, USA), the expression of class II molecules is determined by flow cytometry.

[6] = tested on: peritoneal cells; test: Expression of class II CMH molecules and Fc-γ receptors on peritoneal cells taken from an animal; assay type: cell-based, Balb/c mouse; settings: 50 μM, 24 hours, flow cytometry
Procedure: as §4, §5

[7] = tested on: P388D1; test: Induction of class II CMH molecules on P388D1 cell line, flow cytometry; assay type: cell-based, murine; settings: for percentage of class II CMH detected by flow cytometry, P388D1: 50 μM, stimulated for 24 hours
Procedure: as §6, §7

[8] = tested on: cells taken from mice 129 no longer expressing the alpha chain of the IFN-γ receptor (KO mice); test: Involvement of the IFN-γ receptor: IA^d and Fc-γ R on cells of mice lacking the alpha chain of the IFN-γ receptor; assay type: cell-based; settings: stimulation for 24 hours, flow cytometry
Procedure: as §5
(§8) Principle. to confirm that the biological activity observed was effectively associated with a stimulation of the IFN-γ receptor, we repeated the same experiments, in parallel on splenocytes taken from mice 129 (Wild type: WT) and on cells taken from mice 129 no longer expressing the alpha chain of the IFN-γ receptor (KO mice).
(§9) Procedure. The experimental protocol followed is identical to that described in paragraph 2 above.

[9] = tested on: splenocytes taken from mice 129 (Wild type: WT); test: Involvement of the IFN-γ receptor: IA^d and Fc-γ R on splenocytes of wild type mice 129; assay type: cell-based; settings: stimulation for 24 hours, flow cytometry
Procedure: as §5, §8, §9

[10] = Circular dichroism studies; assay type: physicochemical; settings: 2 mM pH 7 phosphate buffer
Procedure: The circular dichroism measurements on the peptides were carried out at 25° C. using a Jobin-Yvon CD-6 machine at controlled temperature. The scans were carried out with a cell 0.1 cm in length in an average time of 5 sec. The wavelength interval measured ranges from 185 to 260 nm at a scanning step speed of 0.5 nm/step. The scans were carried out on the peptides at neutral pH in a 2 mM phosphate buffer with or without the helix-stabilizing reagent trifluoroethanol (TFE). The peptide concentration was adjusted to a concentration of 20 μM, after determination of the exact amount of a 100 μM solution by quantitative amino acid analysis. The average values of 4 repeat scans were expressed as average molar ellipticity per residue (deg. cm^2 dmol.).

[11] = tested on: human colon carcinoma cells (COLO 205); test: Induction of HLA-DR on COLO 205 cell line, flow cytometry; assay type: cell-based; settings: COLO 205, 50 μM
Procedure: Principle: human colon carcinoma cells (COLO 205) are analysed for their ability to express HLA-DR after having been stimulated with the various peptide constructs.
Procedure. The cell line COLO 205 is cultured at a rate of 3×10^5 cells per well in a 24-well culture plate (NUNC). The following day, the cells are stimulated with the various peptide constructs at a final concentration of 50 μM in 1 ml of medium, and are incubated at 37° C. for 24 hours. The cells are then recovered and labelled using 3 μg of an anti HLA-DR mouse biotinylated monoclonal antibody (clone L243). After revelation with FITC streptavidin, the cells are analysed by flow cytometry.

splenocytes II CMH (%) [4] [%] | splenocytes RFc (%) [4] [%] | WT mice II CMH (%) [9] [%] | WT mice RFc (%) [9] [%] | Molecule | increase in class II CMH molecules (FIG. 12A) [1] | increase in class II CMH molecules (FIG. 12B) [2] | cytotoxicity [3] | percentage of class II CMH detected by flow cytometry, WEH1 [5] [%] | peritoneal cells II CMH (%) [6] [%] | peritoneal cells RFc (%) [6] [%] | percentage of class II CMH detected by flow cytometry, P388D1 [7] [%] | KO mice II CMR (%) [8] [%] | KO mice RFc (%) [8] [%] | helical (ordered) conformation by CD ([10]; 25% trifluoroethanol) | other results
 |  |  |  | L-mIFN-γ 113-132: fragment 113-132 of murine IFNγ, carboxamide end, N-terminal Ac-K(Pam) group (Ac-K(Palmitoyl)IRVVHQLLPESSLRKRKRSR-NH2; SMILES CCCCCCCCCCCCCCCC(=O)NCCCC[C@H](NC(C)=O)C(=O)N[C@H](C(=O)N[C@@H](CCCNC(=N)N)C(=O)N[C@H](C(=O)N[C@H](C(=O)N[C@@H](Cc1c[nH]cn1)C(=O)N[C@@H](CCC(N)=O)C(=O)N[C@@H](CC(C)C)C(=O)N[C@@H](CC(C)C)C(=O)N1CCC[C@H]1C(=O)N[C@@H](CCC(=O)O)C(=O)N[C@@H](CO)C(=O)N[C@@H](CO)C(=O)N[C@@H](CC(C)C)C(=O)N[C@@H](CCCNC(=N)N)C(=O)N[C@@H](CCCCN)C(=O)N[C@@H](CCCNC(=N)N)C(=O)N[C@@H](CCCCN)C(=O)N[C@@H](CCCNC(=N)N)C(=O)N[C@@H](CO)C(=O)N[C@@H](CCCNC(=N)N)C(N)=O)C(C)C)C(C)C)[C@@H](C)CC) | marked dose-dependent increase | marked dose-dependent increase | not cytotoxic |  |  |  |  |  |  |  | increase in the expression of class II CMH molecules ([1]; 50 μM, splenocytes freshly obtained from mice): 13 fold; factor of increase of the expression of IA^b ([1]; 100 μM (280 μg/ml), murine cells): 18; increase in the expression of HLA-DR ([2]; 50 μM, human cells): 10 fold; increase in the expression of HLA-DR ([2]; 75 μM (210 μg/ml), human cell lines): 15 fold
12 | 7 | 12 | 1 | Mu: non-lipid peptide: sequence delimited by the amino acids in positions 95 and 132 of the murine IFN-γ peptide sequence (AKFEVNNPQVQRQAFNELIRVVHQLLPESSLRKRKRSR; listed as Mus sp.) | inactive | inactive |  | 8 | 13 | 8 | 5 | 3 | 1 | 53% | helical (ordered) conformation by CD ([10]; 50% trifluoroethanol): 65%; induction of the expression of HLA-DR [11]: no activity; % HLA-DR ([11]; 24 hours, flow cytometry): 1.2%
 |  |  |  | L-mIFN-γ 122-132: fragment 122-132 of murine IFNγ, carboxamide end, N-terminal Ac-K(Pam) group (Ac-K(Palmitoyl)ESSLRKRKRSR-NH2; SMILES CCCCCCCCCCCCCCCC(=O)NCCCC[C@H](NC(C)=O)C(=O)N[C@@H](CCC(=O)O)C(=O)N[C@@H](CO)C(=O)N[C@@H](CO)C(=O)N[C@@H](CC(C)C)C(=O)N[C@@H](CCCNC(=N)N)C(=O)N[C@@H](CCCCN)C(=O)N[C@@H](CCCNC(=N)N)C(=O)N[C@@H](CCCCN)C(=O)N[C@@H](CCCNC(=N)N)C(=O)N[C@@H](CO)C(=O)N[C@@H](CCCNC(=N)N)C(N)=O) | neither L-mIFN-γ 122-132 nor MuSL are active | neither L-mIFN-γ 122-132 nor MuSL are active |  |  |  |  |  |  |  | 50-60% | 
9 | 8 | 3 | 1 | MuS: non-lipid scrambled analogue of the Mu peptide (PSRENQNAVKIQKLSVVLRREQKHRVERLAFRNQSLPF) |  |  |  | 5 | 6 | 8 | 14 | 3 | 1 |  | 
 |  |  |  | CCCCCCCCCCCCCCCC(=O)NCCCC[C@H](NC(C)=O)C(=O)N[C@@H](C)C(=O)N[C@@H](CCCCN)C(=O)N[C@@H](Cc1ccccc1)C(=O)N[C@@H](CCC(=O)O)C(=O)N[C@H](C(=O)N[C@@H](CC(N)=O)C(=O)N[C@@H](CC(N)=O)C(=O)N1CCC[C@H]1C(=O)N[C@@H](CCC(N)=O)C(=O)N[C@H](C(=O)N[C@@H](CCC(N)=O)C(=O)N[C@@H](CCCNC(=N)N)C(=O)N[C@@H](CCC(N)=O)C(=O)N[C@@H](C)C(=O)N[C@@H](Cc1ccccc1)C(=O)N[C@@H](CC(N)=O)C(=O)N[C@@H](CCC(=O)O)C(=O)N[C@@H](CC(C)C)C(=O)N[C@H](C(=O)N[C@@H](CCCNC(=N)N)C(=O)N[C@H](C(=O)N[C@H](C(=O)N[C@@H](Cc1c[nH]cn1)C(=O)N[C@@H](CCC(N)=O)C(=O)N[C@@H](CC(C)C)C(=O)N[C@@H](CC(C)C)C(=O)N1CCC[C@H]1C(=O)N[C@@H](CCC(=O)O)C(=O)N[C@@H](CO)C(=O)N[C@@H](CO)C(=O)N[C@@H](CC(C)C)C(=O)N[C@@H](CCCNC(=N)N)C(=O)N[C@@H](CCCCN)C(=O)N[C@@H](CCCNC(=N)N)C(=O)N[C@@H](CCCCN)C(=O)N[C@@H](CCCNC(=N)N)C(=O)N[C@@H](CO)C(=O)N[C@@H](CCCNC(=N)N)C(N)=O)C(C)C)C(C)C)[C@@H](C)CC)C(C)C)C(C)C [MuL] (Ac-K(Palmitoyl)AKFEVNNPQVQRQAFNELIRVVHQLLPESSLRKRKRSR-NH2) |  |  | cytotoxic |  |  |  |  |  |  |  | 
 |  |  |  | recombinant IFN-γ: recombinant interferon-gamma cytokine used as reference |  |  |  |  |  |  |  |  |  |  | stimulation time at which induction of class II CMH molecules is at a maximum ([7]; cell lines of Table 8): 48 h
